Publication PMC4287394 (Clinical cancer research : an official journal of the …, 2014)

Assay: Phase I safety: adverse events, DLT, MTD, RP2D
Format: in vivo, human
[1] = 15mg 21/28, 4 patients, all grades
[2] = 30mg 21/28, 3 patients, all grades
[3] = 45mg 21/28, 4 patients, all grades
[4] = 60mg 21/28, 4 patients, all grades
[5] = 80mg 21/28, 3 patients, all grades
[6] = 100mg 21/28, 5 patients, all grades
[7] = 130mg 21/28, 3 patients, all grades
[8] = 130mg 21/28, 3 patients, grade ≥3
[9] = 180mg 21/28, 3 patients, all grades
[10] = 245mg 21/28, 3 patients, all grades
[11] = 330mg 21/28, 7 patients, all grades

CS(=O)(=O)N1CCN(Cc2cc3nc(-c4cccc5[nH]ncc45)nc(N4CCOCC4)c3s2)CC1 [pictilisib, 2-(1H-indazol-4-yl)-6-(4-methanesulfonyl-piperazin-1-ylmethyl)-4-morpholin-4-yl-t hieno[3,2-d]pyrimidine]
0: Decreased appetite, no. of patients with treatment-related AE [1] | Diarrhea, no. of patients with treatment-related AE [1] | Fatigue, no. of patients with treatment-related AE [1] | Rash (all rash preferred terms), no. of patients with treatment-related AE [1] | Vomiting, no. of patients with treatment-related AE [1] | Xeroderma, no. of patients with treatment-related AE [1] | Decreased appetite, no. of patients with treatment-related AE [2] | Diarrhea, no. of patients with treatment-related AE [2] | Dysgeusia, no. of patients with treatment-related AE [2] | Fatigue, no. of patients with treatment-related AE [2] | Nausea, no. of patients with treatment-related AE [2] | Rash (all rash preferred terms), no. of patients with treatment-related AE [2] | Vomiting, no. of patients with treatment-related AE [2] | Xeroderma, no. of patients with treatment-related AE [2] | Decreased appetite, no. of patients with treatment-related AE [3] | Fatigue, no. of patients with treatment-related AE [3] | Nausea, no. of patients with treatment-related AE [3] | Rash (all rash preferred terms), no. of patients with treatment-related AE [3] | Vomiting, no. of patients with treatment-related AE [3] | Xeroderma, no. of patients with treatment-related AE [3] | Decreased appetite, no. of patients with treatment-related AE [4] | Dysgeusia, no. of patients with treatment-related AE [4] | Fatigue, no. of patients with treatment-related AE [4] | Rash (all rash preferred terms), no. of patients with treatment-related AE [4] | Xeroderma, no. of patients with treatment-related AE [4] | Decreased appetite, no. of patients with treatment-related AE [5] | Rash (all rash preferred terms), no. of patients with treatment-related AE [5] | Xeroderma, no. of patients with treatment-related AE [5] | Decreased appetite, no. of patients with treatment-related AE [6] | Dysgeusia, no. of patients with treatment-related AE [6] | Rash (all rash preferred terms), no. of patients with treatment-related AE [6] | Vomiting, no. of patients with treatment-related AE [6] | Xeroderma, no. of patients with treatment-related AE [6] | Decreased appetite, no. of patients with treatment-related AE [7] | Diarrhea, no. of patients with treatment-related AE [7] | Dysgeusia, no. of patients with treatment-related AE [7] | Fatigue, no. of patients with treatment-related AE [7] | Nausea, no. of patients with treatment-related AE [7] | Rash (all rash preferred terms), no. of patients with treatment-related AE [7] | Vomiting, no. of patients with treatment-related AE [7] | Xeroderma, no. of patients with treatment-related AE [7] | Decreased appetite, no. of patients with treatment-related AE [8] | Diarrhea, no. of patients with treatment-related AE [8] | Dysgeusia, no. of patients with treatment-related AE [8] | Fatigue, no. of patients with treatment-related AE [8] | Nausea, no. of patients with treatment-related AE [8] | Rash (all rash preferred terms), no. of patients with treatment-related AE [8] | Vomiting, no. of patients with treatment-related AE [8] | Xeroderma, no. of patients with treatment-related AE [8] | Nausea, no. of patients with treatment-related AE [9] | Vomiting, no. of patients with treatment-related AE [9] | Xeroderma, no. of patients with treatment-related AE [9] | Dysgeusia, no. of patients with treatment-related AE [10] | Rash (all rash preferred terms), no. of patients with treatment-related AE [10] | Vomiting, no. of patients with treatment-related AE [10]
1: Dysgeusia, no. of patients with treatment-related AE [1] | Nausea, no. of patients with treatment-related AE [1] | Any treatment-related adverse event, no. of patients [2] | Dysgeusia, no. of patients with treatment-related AE [3] | Diarrhea, no. of patients with treatment-related AE [4] | Diarrhea, no. of patients with treatment-related AE [5] | Dysgeusia, no. of patients with treatment-related AE [5] | Nausea, no. of patients with treatment-related AE [5] | Vomiting, no. of patients with treatment-related AE [5] | Diarrhea, no. of patients with treatment-related AE [6] | Fatigue, no. of patients with treatment-related AE [6] | Patients with grade 4 hyperglycemia (130mg) | Any treatment-related adverse event, no. of patients [7] | Any treatment-related adverse event, no. of patients [8] | Decreased appetite, no. of patients with treatment-related AE [9] | Diarrhea, no. of patients with treatment-related AE [9] | Dysgeusia, no. of patients with treatment-related AE [9] | Fatigue, no. of patients with treatment-related AE [9] | Rash (all rash preferred terms), no. of patients with treatment-related AE [9] | Decreased appetite, no. of patients with treatment-related AE [10] | Fatigue, no. of patients with treatment-related AE [10] | Nausea, no. of patients with treatment-related AE [10] | Xeroderma, no. of patients with treatment-related AE [10] | Dysgeusia, no. of patients with treatment-related AE [11]
3: Any treatment-related adverse event, no. of patients [5] | Any treatment-related adverse event, no. of patients [6] | Nausea, no. of patients with treatment-related AE [6] | Any treatment-related adverse event, no. of patients [10] | Diarrhea, no. of patients with treatment-related AE [11] | Vomiting, no. of patients with treatment-related AE [11]
4: Fatigue, no. of patients with treatment-related AE [11] | Nausea, no. of patients with treatment-related AE [11] | Rash (all rash preferred terms), no. of patients with treatment-related AE [11]
7: Any treatment-related adverse event, no. of patients [11]
2: Any treatment-related adverse event, no. of patients [1] | Any treatment-related adverse event, no. of patients [3] | Diarrhea, no. of patients with treatment-related AE [3] | Any treatment-related adverse event, no. of patients [4] | Nausea, no. of patients with treatment-related AE [4] | Vomiting, no. of patients with treatment-related AE [4] | Fatigue, no. of patients with treatment-related AE [5] | Any treatment-related adverse event, no. of patients [9] | Diarrhea, no. of patients with treatment-related AE [10] | Decreased appetite, no. of patients with treatment-related AE [11] | Xeroderma, no. of patients with treatment-related AE [11]
